14 compounds from ChEMBL document CHEMBL1201862, “PubChem BioAssay data set” (2004) can be followed below.

SMILES strings stand for the structures.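 Values below derive from 48-hour exposures of cells grown in 96-well plates, with endpoints linearly interpolated between the two concentrations bracketing the appropriate inhibition level. GI50: concentration for 50% inhibition of growth.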 The source made the active and inactive calls. No stated cut-off is given here; in the data, active = GI50 up to about 1.1 µM and inactive = higher. Some results are limits rather than exact numbers.

Some test systems named below: A549; RXF 393; HL-60; Malme-3M; HCT-15; HCC 2998; DMS-273; UACC-257; SR; TK-10; UACC-62; NCI-H23; M14; NCI-H226; HOP-92; NCI/ADR-RES; BT-549; MCF7; DU-145; MDA-N.
What all share (experiment): inhibition of tumour cell growth, NCI panel, 48 h

As to `C[C@]12CC[C@@H]3c4ccccc4CC[C@H]3[C@@H]1CC[C@@H]2O`, the GI50 in the assay on A549 is 99.3 µM (inactive); in the assay with RXF 393 it was 27.6 µM (inactive); in the assay on HL-60, > 10 µM (inactive); in the assay on Malme-3M, 44.2 µM (inactive); in the assay on HCT-15 it was 50.2 µM; in the assay on HCC 2998, 61.7 µM (inactive). Moreover, the GI50 is 51.1 µM (inactive) in the assay with DMS-273; > 100 µM (inactive) in the assay with UACC-257; 56.1 µM (inactive) with SR; > 100 µM (inactive) with TK-10; 42.6 µM (inactive) in the assay on UACC-62; > 100 µM (inactive) in the assay with NCI-H23. The GI50 in the assay on M14 is > 100 µM (inactive).
On to `CCC1CN2CCc3cc(OC)c(OC)cc3C2CC1CC1c2cc(OC)c(OC)cc2CCN1C(=O)C1CCCN1C(=O)OCc1ccccc1` (stereo not given), for which the GI50 in the assay on A549 was 18.9 µM (inactive); in the assay with RXF 393, 10.4 µM (inactive); in the assay on NCI-H226, 16.1 µM (inactive); in the assay with HL-60, 13.1 µM (inactive); with Malme-3M, 18.3 µM (inactive); in the assay on HCT-15, 16.2 µM. Besides, the GI50 in the assay with HCC 2998 is 16.3 µM (inactive); in the assay on DMS-273, 16.3 µM (inactive); in the assay on UACC-257, 16.9 µM (inactive); in the assay with TK-10 it was 19.5 µM (inactive); with HOP-92, 10.2 µM (inactive); in the assay on UACC-62 it was 16.1 µM (inactive). Besides, the results for the GI50 with NCI-H23 and with M14 were 16.3 µM (inactive) and 17.1 µM (inactive), respectively.
Turning to `CC(O)c1ccc(C(O)/C(=N\NC(=O)c2ccncc2)c2nc3ccc([N+](=O)[O-])cc3nc2O)cc1` (stereo not given), the GI50 in the assay with A549 is > 100 µM (inactive); in the assay with RXF 393, > 100 µM (inactive); in the assay with NCI-H226, > 100 µM (inactive); in the assay with HL-60 it was 50.5 µM (inactive); with Malme-3M it was > 100 µM (inactive); with HCT-15, 34.8 µM. The GI50 in the assay on HCC 2998 is 75.2 µM (inactive); in the assay with DMS-273 it was 83.8 µM (inactive); in the assay on UACC-257 it was > 100 µM (inactive); with SR it was 75 µM (inactive); in the assay with HOP-92 it was > 100 µM (inactive); with UACC-62, 59.2 µM (inactive). Besides, the GI50 with NCI-H23 and in the assay on M14 was > 100 µM (inactive) in each case.
Regarding `CCCCCCC(=O)C/C(CCC(=O)N(Cc1ccccc1)Cc1ccccc1)=N\NC(N)=O`, the GI50 is > 100 µM (inactive) in the assay on A549; > 100 µM (inactive) with RXF 393; > 100 µM (inactive) in the assay on NCI-H226; > 100 µM (inactive) in the assay on HL-60; > 100 µM (inactive) with Malme-3M; greater than 100 µM with HCT-15. The GI50 with HCC 2998, with DMS-273, with UACC-257, in the assay with SR, in the assay with TK-10 and in the assay on HOP-92 was > 100 µM (inactive) in each case. In addition, the GI50 in the assay with UACC-62, in the assay with NCI-H23 and in the assay on M14 was > 100 µM (inactive) each time.
In the case of `COc1ccc(OC)c(NC(=O)C(=O)CC(=O)c2sc(-n3nc(-c4ccccc4)cc3-c3ccccc3)nc2C)c1`, the GI50 was > 100 µM (inactive) in the assay with A549; > 100 µM (inactive) in the assay on RXF 393; > 100 µM (inactive) with NCI-H226; > 100 µM (inactive) in the assay with HL-60; > 100 µM (inactive) in the assay on Malme-3M; greater than 100 µM in the assay with HCT-15. Also, the GI50 was > 100 µM (inactive) in the assay on HCC 2998; > 100 µM (inactive) with DMS-273; > 100 µM (inactive) with UACC-257; 27.7 µM (inactive) with SR; > 100 µM (inactive) in the assay on TK-10; > 100 µM (inactive) with UACC-62. The GI50 with NCI-H23 and with M14 was > 100 µM (inactive) in each case.
Consider `CCOC(=O)C1CCCCN1C(=O)OCc1ccccc1` (stereo not given), for which the GI50 with A549 is > 100 µM (inactive); in the assay with RXF 393, > 100 µM (inactive); with NCI-H226 it was 27.3 µM (inactive); in the assay on HL-60 it was 41 µM (inactive); with HCT-15, greater than 100 µM; in the assay with DMS-273, > 100 µM (inactive). For the same compound, the GI50 was > 100 µM (inactive) in the assay on UACC-257; > 100 µM (inactive) in the assay with SR; > 100 µM (inactive) with TK-10; > 100 µM (inactive) with UACC-62; 78.3 µM (inactive) in the assay on NCI-H23; > 100 µM (inactive) in the assay with M14.
On to `CC1(C2COC(=O)C2)SCCCS1` (stereo not given), for which the GI50 in the assay on A549 is > 100 µM (inactive); in the assay with RXF 393, > 100 µM (inactive); in the assay with NCI-H226, > 100 µM (inactive); in the assay with HL-60, > 100 µM (inactive); with Malme-3M, > 100 µM (inactive); with HCT-15, greater than 100 µM. For the same compound, the GI50 with HCC 2998, with DMS-273, with UACC-257, with SR, with TK-10 and in the assay on HOP-92 was > 100 µM (inactive) throughout. In addition, the GI50 in the assay on UACC-62, in the assay with NCI-H23 and in the assay with M14 was > 100 µM (inactive) in each case.
For `CC(C)(C)NC(=O)NC12CC3CC(CC(F)(C3)C1)C2`, the GI50 with A549, with RXF 393, with HL-60, in the assay on Malme-3M, with HCC 2998 and with DMS-273 was > 100 µM (inactive) each time. The GI50 with UACC-257, in the assay with TK-10, in the assay with HOP-92, in the assay on UACC-62, in the assay with NCI-H23 and with M14 was > 100 µM (inactive) throughout.
For the compound `CC(=O)Nc1ccccc1-c1nc2ccccc2nc1-c1ccccc1`, the GI50 in the assay on A549 was > 100 µM (inactive); with RXF 393, > 100 µM (inactive); with HL-60, > 100 µM (inactive); in the assay on HCT-15, greater than 100 µM; with HCC 2998, > 100 µM (inactive); in the assay on DMS-273, > 100 µM (inactive). Further, the GI50 in the assay on UACC-257, in the assay with SR, in the assay on HOP-92, in the assay with UACC-62, in the assay with NCI-H23 and in the assay on M14 was > 100 µM (inactive) each time.
Take `N#C/C(=C\c1ccc2[nH]ccc2c1)C(=O)NCCCCNC(=O)/C(C#N)=C/c1ccc2[nH]ccc2c1`: the GI50 with A549 is > 100 µM (inactive); with NCI/ADR-RES, > 10 µM (inactive); with BT-549 it was > 10 µM (inactive); in the assay with RXF 393, > 10 µM (inactive); in the assay with MCF7, > 10 µM (inactive); in the assay with NCI-H226, > 31.6 µM (inactive). Also, the GI50 with HL-60 was > 31.6 µM (inactive); in the assay on Malme-3M it was > 31.6 µM (inactive); in the assay on DU-145 it was > 10 µM (inactive); in the assay on HCT-15, greater than 31.6 µM; with HCC 2998, > 31.6 µM (inactive); in the assay with DMS-273, > 100 µM (inactive). Moreover, the GI50 in the assay with UACC-257 is > 31.6 µM (inactive); in the assay on SR, > 31.6 µM (inactive); in the assay on TK-10 it was > 31.6 µM (inactive); with HOP-92 it was > 31.6 µM (inactive); in the assay with UACC-62, > 31.6 µM (inactive); in the assay on MDA-N, > 10 µM (inactive). Also, the GI50 with NCI-H23 and with M14 was > 31.6 µM (inactive) in each case.
For the compound `N#C/C(=C\c1ccccc1F)C(=O)c1ccccc1`, the GI50 was > 100 µM (inactive) with A549; 66.7 µM (inactive) with HL-60; > 100 µM (inactive) in the assay on Malme-3M; greater than 100 µM in the assay with HCT-15; > 100 µM (inactive) in the assay with HCC 2998; > 100 µM (inactive) in the assay on DMS-273. Besides, the GI50 with UACC-257, with SR, in the assay with TK-10, in the assay with HOP-92, in the assay with UACC-62 and in the assay with NCI-H23 was > 100 µM (inactive) in each case. For the same compound, the GI50 in the assay with M14 is > 100 µM (inactive).
In the case of `CCCCCCCCCCCC(=O)OCCOCCOCCOCCOCCOCc1ccc(OC)cc1`, the GI50 in the assay on A549 was > 100 µM (inactive); in the assay with RXF 393, > 100 µM (inactive); with NCI-H226 it was > 100 µM (inactive); with HL-60 it was 14.8 µM (inactive); in the assay on Malme-3M it was > 100 µM (inactive); with HCT-15, greater than 100 µM. Further, the GI50 in the assay on HCC 2998, with DMS-273, with UACC-257, in the assay with SR, with TK-10 and in the assay with HOP-92 was > 100 µM (inactive) throughout. Besides, the GI50 in the assay with UACC-62, in the assay on NCI-H23 and with M14 was > 100 µM (inactive) each time.
As for `CC(C)(C)C(=O)OCC(COC(=O)C(C)(C)C)[N+](=O)[O-]`, the GI50 in the assay with A549 was > 100 µM (inactive); in the assay with RXF 393, > 100 µM (inactive); in the assay on NCI-H226 it was > 100 µM (inactive); in the assay on HL-60 it was 27.4 µM (inactive); in the assay on Malme-3M it was > 100 µM (inactive); in the assay with HCT-15, greater than 100 µM. Moreover, the GI50 is > 100 µM (inactive) in the assay with HCC 2998; > 100 µM (inactive) in the assay with DMS-273; > 100 µM (inactive) in the assay with UACC-257; 42.4 µM (inactive) in the assay on SR; > 100 µM (inactive) with TK-10; 47.6 µM (inactive) in the assay on UACC-62. In addition, the GI50 with NCI-H23 and in the assay on M14 was > 100 µM (inactive) each time.
Take `C#CCOCn1cnc2c(Cl)ncnc21`: the GI50 in the assay on A549, in the assay with NCI-H226, in the assay on Malme-3M, with HCC 2998, in the assay on DMS-273 and in the assay on UACC-257 was > 100 µM (inactive) throughout. In addition, the GI50 in the assay with SR was 50.9 µM (inactive); with TK-10 it was > 100 µM (inactive); in the assay with HOP-92, > 100 µM (inactive); in the assay with UACC-62, > 100 µM (inactive); with NCI-H23, > 100 µM (inactive); in the assay with M14 it was > 100 µM (inactive).
